According to patent US10351547B2, “Somatostatin modulators and uses thereof” (priority 2016, dated 2019):
Where two headings read alike, the source gives them in different places.

Target: human SSTR2 (Homo sapiens (Human), UniProt P30874)
Experiment: Human SSTR2 intracellular cAMP functional assay for agonists (HTRF)
Assay type: cell-based
Protocol: Functional Assay for SSTR2 Agonists
General overview: All five SSTR subtypes are Gi coupled G-protein coupled receptors (GPCRs) that lead to decreases in intracellular cyclic AMP (cAMP) when activated by an agonist. […] Human SSTR2 intracellular cAMP assay is described below. The human SSTR1, 3, 4 and 5 assays follow the same protocol of SSTR2.
The cells are cultured at 37° C., 5% CO2 and 95% humidity. […] The cells are incubated for 20 minutes at 37° C. […] The cells are treated with 50 μL of lysis buffer (HRTF cAMP kit, Cisbio). […] The time-resolved fluorescent signal is read with a Tecan M1000Pro multiplate reader. The intracellular cAMP concentrations are calculated by regression to a standard curve and are plotted vs. the concentration of the compounds of the invention and the EC50 of the compounds are calculated using standard methods. All data manipulations are in GraphPad Prism v6.

[1] = CHO-K1 cells stably expressing human SSTR2, NKH477-stimulated cAMP, read-out: EC50 (inhibition of cAMP activities via human SST2R)

Chain of human SSTR2 (P30874 whole entry): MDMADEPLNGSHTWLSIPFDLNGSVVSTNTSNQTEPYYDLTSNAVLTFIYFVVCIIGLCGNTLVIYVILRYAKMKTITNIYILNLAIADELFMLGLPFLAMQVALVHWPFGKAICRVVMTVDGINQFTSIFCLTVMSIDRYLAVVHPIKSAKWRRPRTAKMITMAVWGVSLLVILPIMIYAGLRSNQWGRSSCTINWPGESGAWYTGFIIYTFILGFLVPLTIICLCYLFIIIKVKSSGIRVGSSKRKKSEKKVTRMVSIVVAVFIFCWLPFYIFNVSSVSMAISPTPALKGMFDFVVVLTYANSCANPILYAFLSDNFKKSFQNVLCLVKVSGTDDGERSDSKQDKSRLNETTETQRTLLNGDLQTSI

| Compound | EC50 [1] [nM] | EC50 [nM] |
| --- | --- | --- |
| Cc1cc(F)cc(-c2nnc3ccc(-c4cc(F)cc(C(N)=O)c4)cc3c2N2CCC(N)CC2)c1 [1-13, 3-[4-(4-aminopiperidin-1-yl)-3-(3-fluoro-5-methylphenyl)cinnolin-6-yl]-5-fluorobenzamide] | < 10 |  |
| NC(=O)c1cc(F)cc(-c2ccc3nnc(-c4cc(F)cc(F)c4)c(N4CCC(N)CC4)c3c2)c1 [1-14, 3-[4-(4-aminopiperidin-1-yl)-3-(3,5-difluorophenyl)cinnolin-6-yl]-5-fluorobenzamide] | < 10 |  |
| Cc1cc(F)cc(-c2ccc3nnc(-c4cc(F)cc(C(N)=O)c4)c(N4CCC(N)CC4)c3c2)c1 [1-15, 3-[4-(4-aminopiperidin-1-yl)-6-(3-fluoro-5-methylphenyl)cinnolin-3-yl]-5-fluorobenzamide] |  | 10 to 100 |
| Cc1cc(F)cc(-c2nnc3ccc(-c4ccc5[nH]c(=O)[nH]c5c4)cc3c2N2CCC(N)CC2)c1 [1-16, 5-[4-(4-aminopiperidin-1-yl)-3-(3-fluoro-5-methylphenyl)cinnolin-6-yl]-2,3-dihydro-1H-1,3-benzodiazol-2-one] | < 10 |  |
| Cc1cc(F)cc(-c2nnc3ccc(-c4cccc(C#N)c4O)cc3c2N2CCC(N)CC2)c1 [1-17, 3-[4-(4-aminopiperidin-1-yl)-3-(3-fluoro-5-methylphenyl)cinnolin-6-yl]-2-hydroxybenzonitrile] | < 10 |  |
| Cc1cc(Cl)cc(-c2nnc3ccc(-c4cccc(C#N)c4O)cc3c2N2CCC(N)CC2)c1 [1-18, 3-[4-(4-aminopiperidin-1-yl)-3-(3-chloro-5-methylphenyl)cinnolin-6-yl]-2-hydroxybenzonitrile] | < 10 |  |
| N#Cc1cccc(-c2ccc3nnc(-c4cc(F)cc(Cl)c4)c(N4CCC(N)CC4)c3c2)c1O [1-19, 3-[4-(4-aminopiperidin-1-yl)-3-(3-chloro-5-fluorophenyl)cinnolin-6-yl]-2-hydroxybenzonitrile] | < 10 |  |
| N#Cc1cccc(-c2ccc3nnc(-c4cc(F)cc(F)c4)c(N4CCC(N)CC4)c3c2)c1O [1-20, 3-[4-(4-aminopiperidin-1-yl)-3-(3,5-difluorophenyl)cinnolin-6-yl]-2-hydroxybenzonitrile] |  | 10 to 100 |
| N#Cc1cccc(-c2ccc3nnc(-c4cc(Cl)cc(Cl)c4)c(N4CCC(N)CC4)c3c2)c1O [1-21, 3-[4-(4-aminopiperidin-1-yl)-3-(3,5-dichlorophenyl)cinnolin-6-yl]-2-hydroxybenzonitrile] | < 10 |  |
| Cc1cc(Cl)cc(-c2nnc3ccc(-c4cc(F)cc(C#N)c4O)cc3c2N2CCC(N)CC2)c1 [1-22, 3-[4-(4-aminopiperidin-1-yl)-3-(3-chloro-5-methylphenyl)cinnolin-6-yl]-5-fluoro-2-hydroxybenzonitrile] | < 10 |  |
| Cc1cc(Cl)cc(-c2nnc3ccc(-c4cc(F)c5[nH]c(=O)[nH]c5c4)cc3c2N2CCC(N)CC2)c1 [1-23, 6-[4-(4-aminopiperidin-1-yl)-3-(3-chloro-5-methylphenyl)cinnolin-6-yl]-4-fluoro-2,3-dihydro-1H-1,3-benzodiazol-2-one] | < 10 |  |
| Cc1cc(Cl)cc(-c2nnc3ccc(-c4cc(F)cc5[nH]c(=O)[nH]c45)cc3c2N2CCC(N)CC2)c1 [1-24, 4-[4-(4-aminopiperidin-1-yl)-3-(3-chloro-5-methylphenyl)cinnolin-6-yl]-6-fluoro-2,3-dihydro-1H-1,3-benzodiazol-2-one] | < 10 |  |
| Cc1cc(F)cc(-c2nnc3cc(Cl)c(-c4cc(F)cc(C(N)=O)c4)cc3c2N2CCC(NCCF)CC2)c1 [1-25, 3-[7-chloro-3-(3-fluoro-5-methylphenyl)-4-{4-[(2-fluoroethyl)amino]piperidin-1-yl}cinnolin-6-yl]-5-fluorobenzamide] | < 10 |  |
| NC1CCN(c2c(-c3cc(Cl)cc(Cl)c3)nnc3ccc(-c4cc(F)c5[nH]c(=O)[nH]c5c4)cc23)CC1 [1-28, 6-[4-(4-aminopiperidin-1-yl)-3-(3,5-dichlorophenyl)cinnolin-6-yl]-4-fluoro-2,3-dihydro-1H-1,3-benzodiazol-2-one] | < 10 |  |
